According to patent US11844794B2, “Pharmaceutical compositions” (ADEPTIO PHARMACEUTICALS LIMITED, priority 2017, dated 2023):

Tests used:
[1] = plasma concentrations after oral dosing to human volunteers; assay type: in vivo
Experimental: (+)-α-Dihydrotetrabenazine in amounts was administered by oral dosing to five human volunteers. In four of the volunteers, blood sample were taken at 30, 60, 120 and 180 minutes after drug administration. Blood samples were not taken from the fifth volunteer. At 60 minutes after drug administration, PET scans were initiated and these were stopped at 120 minutes after drug administration. The experiment was carried out at dosages of 7.5 mg, 15 mg and 22.5 mg.

amphetamine-induced rats = assay: amphetamine-induced locomotor activity, open field test; assay type: in vivo, rat
Experimental: All animal experiments were carried out according to the National Institute of Health (NIH) guidelines for the care and use of laboratory animals, and approved by the National Animal Experiment Board, Finland. Male CD (Charles River Laboratories, Germany) at weight range of 200-250 g (165-200 g upon arrival) were used for the experiments. Animals were housed at a standard temperature (22±1° C.) and in a light-controlled environment (lights on from 7 am to 8 pm) with ad libitum access to food and water.
Locomotor activity of the rats was tested in open field arena. The open field test was performed during the rat light cycle and under a normal lighting evenly distributed to the test chambers. The paths of the rats were recorded by activity monitor (Med. Associates Inc.).
Dosing the vehicle, vehicle-amphetamine, (+)-α-DHTBZ or risperidone was done prior to LMA test. The rats were placed in the centre of the arena, and the path was recorded for 60 minutes.
Animals were grouped as follows: • Group 1: 10 rats treated with Vehicle (t=0 min) and Vehicle (t=30 min) • Group 2: 10 rats treated with Vehicle (t=0 min) and Amphetamine (t=30 min) • Group 3: 10 rats treated with (+)-α-DHTBZ 0.5 mg/kg (t=0 min) and Amphetamine (t=30 min) • Group 4: 10 rats treated with (+)-α-DHTBZ 1 mg/kg (t=0 min) and Amphetamine (t=30 min) • Group 5: 10 rats treated with (+)-α-DHTBZ 1.5 mg/kg (t=0 min) and Amphetamine (t=30 min) • Group 6: 10 rats treated with (+)-α-DHTBZ 2 mg/kg (t=0 min) and Amphetamine (t=30 min) • Group 7: 10 rats treated with risperidone 1 mg/kg (t=0 min) and Amphetamine (t=30 min)
(§1) Rats dosed with either vehicle, (+)-α-DHTBZ 0.5 mg/kg, (+)-α-DHTBZ 1 mg/kg, (+)-α-DHTBZ 1.5 mg/kg, (+)-α-DHTBZ 2 mg/kg or Risperidone 1 mg/kg were subjected to LMA testing first for 30 min and then for 60 minutes after vehicle or amphetamine challenge. Resulting locomotor activity was evaluated in 3 min bins and as a total over the testing period.
as §1, with “stereotypic” for “locomotor”, “period. […]” for “period.”

[2] = Study 1, all the tested doses (0.5, 1, 1.5 and 2 mg/kg)

COc1cc2c(cc1OC)[C@H]1C[C@@H](O)[C@H](CC(C)C)CN1CC2 [(+)-α-dihydrotetrabenazine, (2R,3R,11bR)-3-isobutyl-9,10-dimethoxy-1,3,4,6,7,11b-hexahydro-2H-pyrido[2,1,a]isoquinolin-2-01]
concentration at 1 h ([1]; human, plasma, subject 1 (112 kg), 7.5 mg oral): 0.94 ng/mL | concentration at 1 h ([1]; human, plasma, subject 1 (112 kg), 22.5 mg oral): 18 ng/mL | concentration at 2 h ([1]; human, plasma, subject 2 (76 kg), 7.5 mg oral): 14 ng/mL | concentration at 0.5 h ([1]; human, plasma, subject 3 (129 kg), 15 mg oral, 0.5 h): 1.2 ng/mL | concentration at 2 h ([1]; human, plasma, subject 3 (129 kg), 15 mg oral): 12 ng/mL | plasma concentration of (+)-α-dihydrotetrabenazine ([1]; subject 1 (112 kg), 7.5 mg oral, 0.5 h, BLQ = below level of quantitation): BLQ | total stereotypic behaviour compared to vehicle-vehicle group (amphetamine-induced rats; Study 1, 0.5 mg/kg plus amphetamine, male CD rats): significantly different | total stereotypic behaviour compared to vehicle-amphetamine group (amphetamine-induced rats; Study 1, 0.5 mg/kg, male CD rats): significantly different | total stereotypic behaviour compared to vehicle-amphetamine group (amphetamine-induced rats; Study 1, 1 mg/kg, male CD rats): significantly different | total stereotypic behaviour compared to vehicle-vehicle group (amphetamine-induced rats; Study 1, 1.5 mg/kg plus amphetamine, male CD rats): significantly different | total stereotypic behaviour compared to vehicle-amphetamine group (amphetamine-induced rats; Study 1, 1.5 mg/kg, male CD rats): significantly different | total stereotypic behaviour compared to vehicle-amphetamine group (amphetamine-induced rats; Study 1, 2 mg/kg, male CD rats): significantly different | locomotor activity compared to vehicle-amphetamine group (amphetamine-induced rats; [2]): lower locomotor activity | stereotypic behaviour compared to vehicle-amphetamine group (amphetamine-induced rats; [2]): reduced stereotypic behaviour | effect suggested by both measured parameters (amphetamine-induced rats; Study 1, locomotor activity and stereotypic behaviour): sedative effect similar to risperidone | total stereotypic behaviour compared to vehicle-amphetamine group (amphetamine-induced rats; Study 2, 0.1 mg/kg, male CD rats): significantly different | total stereotypic behaviour compared to vehicle-amphetamine group (amphetamine-induced rats; Study 2, 0.25 mg/kg, male CD rats): significantly different | total distance travelled compared to vehicle-amphetamine group (amphetamine-induced rats; Study 2, 0.25 mg/kg, male CD rats, listed as (+)-α-DHTBZ): lower locomotor activity | stereotypic behaviour compared to vehicle-amphetamine group (amphetamine-induced rats; Study 2, both the tested doses (0.1 and 0.25 mg/kg)): reduced stereotypic behaviour
